One may read the IC50 as the concentration that gives 50% inhibition. For orientation: half-life means the time needed for the level to fall by half in the phase considered. As usually defined, the Emax is the maximal effect, on the per cent scale that the assay sets. The term EC50 denotes the midpoint of the concentration-response curve.

Read-outs that look alike come from different tables or passages of the source.

The values that follow come from patent US20240245691A1 (Sitryx Therapeutics Limited, priority 2021, published 2024).

One data set has as its system IL-1β. The data set can be described thus: THP-1 AlphaLISA IL-1β cytokine assay (differentiated THP-1 cells). Type of data set: cell-based. As for the experimental part: (§1) Measuring Inhibitory Effects on IL-1V Cytokine and IL-6 Output from THP-1s
(§2) The cytokine inhibition profiles of compounds of formula (I) were determined in a differentiated THP-1 cell assay. All assays were performed in RPMI-1640 growth medium (Gibco), supplemented with 10% fetal bovine serum (FBS; Gibco), 1% penicillin-streptomycin and 1% sodium pyruvate unless specified otherwise. The IL-1β and IL-6 cytokine inhibition assays were run in a background of differentiated THP-1 cells as described below. All reagents described were from Sigma-Aldrich unless specified otherwise. Compounds were prepared as 10 mM DMSO stocks.
(§3) THP-1 cells were expanded as a suspension up to 80% confluence in appropriate growth medium. Cells were harvested, suspended, and treated with an appropriate concentration of phorbol 12-myristate 13-acetate (PMA) over a 72 hr period (37° C./5% CO2).
(§4) Following 72 hrs of THP-1 cell incubation, cellular medium was removed and replaced with fresh growth media containing 1% of FBS. Working concentrations of compounds were prepared separately in 10% FBS treated growth medium and pre-incubated with the cells for 30 minutes (37° C./5% CO2). Following the 30 minute compound pre-incubation, THP-1s were treated with an appropriate concentration of LPS and the THP-1s were subsequently incubated for a 24 hr period (37° C./5% CO2). An appropriate final concentration of Nigericin was then dispensed into the THP-1 plates and incubated for 1 hour (37° C./5% CO2) before THP-1 supernatants were harvested and collected in separate polypropylene 96-well holding plates.
(§5) Reagents from each of the IL-1β and IL-6 commercial kits (Perkin Elmer) were prepared and run according to the manufacturer's instructions. Subsequently, fluorescence signal detection in a microplate reader was measured (EnVision® Multilabel Reader, Perkin Elmer).
(§6) Percentage inhibition was calculated per cytokine by normalising the sample data to the high and low controls used within each plate (+/−LPS respectively).
(§7) Dimethyl itaconate and 4-octyl itaconate were included as comparator compounds.
Background: Alpha assays give light when donor and acceptor beads are brought close together.

In a further data set the test system is IL-6. The data set can be described thus: THP-1 AlphaLISA IL-6 cytokine assay (differentiated THP-1 cells). Type of data set: cell-based. As for the experimental part:
as §1, §2, §3, §4, §5, §6, §7

Data set [1] deals with cryo-preserved hepatocytes. The data set can be described thus: Hepatocyte stability assay, human. Type of data set: in vitro ADME. An excerpt: (§8) Defrosted cryo-preserved hepatocytes (viability>70%) were used to determine the metabolic stability of a compound via calculation of intrinsic clearance (CIint; a measure of the removal of a compound from the liver in the absence of blood flow and cell binding). Clearance data are particularly important for in vitro work as they can be used in combination with in vivo data to predict the half-life and oral bioavailability of a drug.
(§9) The metabolic stability in hepatocytes assay involved a time-dependent reaction using both positive and negative controls. The cells must be pre-incubated at 37° C. then spiked with test compound (and positive control); samples taken at pre-determined time intervals were analysed to monitor the change in concentration of the initial drug compound over 60 minutes. A buffer incubation reaction (with no hepatocytes present) acted as a negative control and two cocktail solutions, containing compounds with known high and low clearance values (verapamil/7-hydroxycoumarin and propranolol/diltiazem), acted as positive controls. • 1. The assay was run with a cell concentration of 0.5×10^6 cells/mL in Leibovitz buffer. • 2. All compounds and controls were run in duplicate. • 3. Compound concentration was 10 μM. • 4. All compounds and controls were incubated with both cells and buffer to show turnover is due to hepatic metabolism. • 5. All wells on the incubation plate had 326.7 μL of either cells or buffer added. • 6. Prior to assay, cell and buffer-only incubation plates were preincubated for 10 mins at 37° C. • 7. The assay was initiated by adding compounds, 3.3 μL of 1 mM in 10% DMSO-90% Buffer; final DMSO concentration is 0.1%. • 8. Samples were taken at regular timepoints (0, 5, 10, 20, 40, 60 min) until 60 mins. • 9. Sample volume was 40 μL and added to 160 μL of crash solvent (acetonitrile with internal standard) and stored on ice. • 10. At the end of the assay, the crash plates were centrifuged at 3500 rpm for 20 mins at 4° C. • 11. 80 μL of clear supernatant was removed and mixed with 80 μL of deionised water before being analysed by LC-MS/MS.
(§10) Raw LC-MS/MS data were exported to, and analysed in, Microsoft Excel for determination of intrinsic clearance. The percentage remaining of a compound was monitored using the peak area of the initial concentration as 100%. Intrinsic clearance and half-life values were calculated using a graph of the natural log of percentage remaining versus the time of reaction in minutes.
(§11) 4-Octyl itaconate was included as a comparator compound.

The subject of data set [2] is cryo-preserved hepatocytes. As to the kind of experiment: Hepatocyte stability assay, mouse. Type of data set: in vitro ADME.
Source text: as §8, §9, §10, §11

A short description of data set [3]: Hepatocyte stability assay, human. Type of data set: in vitro ADME. The following applies: human, hepatocytes, T½.
Source text: as §8, §9, §10, §11

Data set [4] can be described thus: Hepatocyte stability assay, mouse. Type of data set: in vitro ADME. As to conditions: mouse, hepatocytes, T½.
Source text: as §8, §9, §10, §11

In data set [5] the test system is NRF2 (nuclear factor erythroid 2-related factor 2). As to the kind of experiment: NRF2 +/-GSH activation assay (DiscoverX PathHunter NRF2 translocation kit, U2OS cells). Type of data set: cell-based. As to conditions: for Emax / EC50: Homo sapiens; for Emax: U2OS; for EC50: U2OS PathHunter cells, 6 hours.
Where [6] appears, read: differentiated THP-1 cells, LPS 24 hr then Nigericin 1 hour, read-out: IL-1β (IC50).
[7] abbreviates: Homo sapiens, THP-1, differentiated THP-1 cells, LPS 24 hr then Nigericin 1 hour, read-out: IL-6 (IC50).
Where [8] appears, read: differentiated THP-1 cells, LPS 24 hr then Nigericin 1 hour, read-out: IL-6 (IC50).
Setting [9] is: −GSH, normalised to dimethyl fumarate high control.
Where [10] appears, read: Human hepatocytes, 10 μM compound, 60 min.
Where [11] appears, read: Mouse hepatocytes, 10 μM compound, 60 min.
[12] abbreviates: Homo sapiens, THP-1, differentiated THP-1 cells, LPS 24 hr then Nigericin 1 hour, read-out: IL-1β (IC50).
Setting [13] is: Homo sapiens, THP-1, differentiated THP-1 cells, footnote a: data from repeated experiments, read-out: IL-1β (IC50), data from repeated experiments.
[14] abbreviates: −GSH, normalised to dimethyl fumarate high control, read-out: NRF2 activation Emax, −GSH.
Setting [15] is: −GSH, read-out: NRF2 activation EC50, −GSH.

Consider `C=C(C(=O)O)C(C)C(=O)NC(C)(C)c1ccc(C(F)(F)F)cc1` (single isomer, unassigned) [Example 53, 3-methyl-2-methylene-4-oxo-4-((2-(4-(trifluoromethyl)phenyl)propan-2-yl)amino)butanoic acid], for which the values for the IC50 with IL-1β (setting [6]) and in the data set on IL-6 (setting [7]) were 9.3 µM and above 100 µM, respectively. For the same compound, the Clint in data set [1] (human, hepatocytes) is given as below 3 μL min^−1 10^−6 cells; in data set [2] (mouse, hepatocytes) it was 5 μL min^−1 10^−6 cells. Further, the T½ in data set [1] (human, hepatocytes, 10 μM) is above 7.67 h; in data set [2] (mouse, hepatocytes, 10 μM), 4.78 h.
Consider `C=C(C(=O)O)C(C)C(=O)NC(C)(C)c1ccc(C(F)(F)F)cc1` (single isomer, unassigned; isomer 1) [Example 52, 3-methyl-2-methylene-4-oxo-4-((2-(4-(trifluoromethyl)phenyl)propan-2-yl)amino)butanoic acid ISOMER 1], for which the IC50 in the data set on IL-1β (setting [6]) came to 18.7 µM. In addition, the half-life at 10 μM in data set [3] was above 7.67 h; in data set [4], 7.18 h. For the same compound, in data set [1] (human, hepatocytes), the Clint is listed as below 3 μL min^−1 10^−6 cells. Also, the T½ in data set [2] (mouse, hepatocytes, 10 μM) is above 7.67 h.
With `C=C(C(=O)O)C(C)C(=O)N[C@@H](C)c1ccc(C(F)(F)F)cc1` (single isomer, unassigned; isomer 2) [Example 55], the IC50 in the data set with IL-1β (setting [6]) is 18.9 µM; with IL-6 (setting [8]), above 31.6 µM. Besides, the Clint in data set [1] (human, hepatocytes) is below 3 μL min^−1 10^−6 cells; in data set [2] (mouse, hepatocytes), 3 μL min^−1 10^−6 cells. For the same compound, the T½ in data set [1] (human, hepatocytes, 10 μM) is above 7.67 h; in data set [2] (mouse, hepatocytes, 10 μM), 7.62 h.
For `C=C(CC(=O)OCCCCCCCC)C(=O)O` [4-octyl itaconate, 4-Octyl itaconate, reference compound], the IC50 with IL-1β (setting [6]) came out at 38.3 µM; with IL-6 (setting [8]) it was 20.3 µM. Moreover, in data set [5] (+GSH, normalised to dimethyl fumarate high control), the “NRF2 activation Emax, +GSH” value worked out at 148%. Also, in data set [5] (setting [9]), the “NRF2 activation Emax, −GSH” value is 165%. Further, the Clint is recorded as 401 μL min^−1 10^−6 cells in data set [1] (setting [10]) and 351 μL min^−1 10^−6 cells in data set [2] (setting [11]). For the same compound, the T½ in data set [1] (setting [10]) and in data set [2] (setting [11]) was 0.067 h in each case.
With `C=C(CC(=O)NCc1ccc(C(F)(F)F)cc1)C(=O)O` [Example 6, 2-methylene-4-oxo-4-((4-(trifluoromethyl)benzyl)amino)butanoic acid], the figures for the IC50 in the data set with IL-1β (setting [12]) and with IL-6 (setting [7]) were 25.3 µM and above 100 µM, respectively.
For `C=C(CC(=O)N[C@@H](CC)c1ccc(C(F)(F)F)cc1)C(=O)O` [Example 8, (S)-2-methylene-4-oxo-4-((1-(4-(trifluoromethyl)phenyl)propyl)amino)butanoic acid], in that order: 43.5 µM and above 100 µM.
Consider `C=C(CC(=O)N[C@@H](CO)c1ccc(C(F)(F)F)cc1)C(=O)O` [Example 12, (R)-4-((2-hydroxy-1-(4-(trifluoromethyl)phenyl)ethyl)amino)-2-methylene-4-oxobutanoic acid], for which the IC50 with IL-1β (setting [12]) was 26.6 µM; in the data set with IL-1β (setting [13]), 35.1 µM; with IL-6 (setting [7]) it was above 100 µM.
For `C=C(CC(=O)N[C@@H](C)c1ccc(Cl)cc1)C(=O)O` [Example 15, (S)-4-((1-(4-chlorophenyl)ethyl)amino)-2-methylene-4-oxobutanoic acid], in that order: 33.7 µM, 32.6 µM and above 61.1 µM.
As for `C=C(CC(=O)N[C@@H](C)c1ccc(C(F)F)cc1)C(=O)O` [Example 18, (S)-4-((1-(4-(difluoromethyl)phenyl)ethyl)amino)-2-methylene-4-oxobutanoic acid], the IC50 in the data set with IL-1β (setting [12]) is 56 µM; in the data set with IL-6 (setting [7]), above 31.6 µM.
As to `C=C(CC(=O)NC(c1ccc(C(F)(F)F)cc1)C1CC1)C(=O)O` (stereo not shown) [Example 23, 4-((cyclopropyl(4-(trifluoromethyl)phenyl)methyl)amino)-2-methylene-4-oxobutanoic acid], the IC50 is 13.4 µM with IL-1β (setting [6]) and above 100 µM in the data set with IL-6 (setting [8]). The Clint in data set [1] (human, hepatocytes) is recorded as below 3 μL min^−1 10^−6 cells; in data set [2] (mouse, hepatocytes), 4 μL min^−1 10^−6 cells. In addition, the T½ was above 7.67 h in data set [1] (human, hepatocytes, 10 μM) and 5.92 h in data set [2] (mouse, hepatocytes, 10 μM).
For `C=C(CC(=O)N[C@@H](C)c1ccc(C(F)(F)F)cn1)C(=O)OC1CCN(C(C)=O)CC1` [Example 35, 1-acetylpiperidin-4-yl (S)-2-methylene-4-oxo-4-((1-(5-(trifluoromethyl)pyridin-2-yl)ethyl)amino)butanoate], the IC50 with IL-1β (setting [12]) was 42.7 µM; with IL-6 (setting [7]) it was 11.9 µM.
As for `C=C(CC(=O)N[C@@H](C)c1ccc(C(F)(F)F)cn1)C(=O)OC1CN(C(C)=O)C1` [Example 36, 1-acetylazetidin-3-yl (S)-2-methylene-4-oxo-4-((1-(5-(trifluoromethyl)pyridin-2-yl)ethyl)amino)butanoate], the IC50 in the data set with IL-1β (setting [12]) was 3.9 µM; with IL-6 (setting [7]), above 100 µM. In addition, the maximum response (Emax) in data set [5] (+GSH, normalised to dimethyl fumarate high control, read-out: NRF2 activation Emax, +GSH) came out at 25%; in data set [5] (setting [14]) it was 65%. The EC50 is above 100 µM in data set [5] (+GSH, read-out: NRF2 activation EC50, +GSH) and 15.9 µM in data set [5] (setting [15]). For the same compound, the half-life at 10 μM in data set [4] is 0.367 h. Also, the Clint in data set [2] (mouse, hepatocytes) was determined as 61 μL min^−1 10^−6 cells.
Turning to `C=C(CC(=O)N[C@@H](C)c1ccc(C(F)(F)F)nc1)C(=O)O` [Example 38, (S)-2-methylene-4-oxo-4-((1-(6-(trifluoromethyl)pyridin-3-yl)ethyl)amino) butanoic acid], the IC50 with IL-1β (setting [12]) was 29.6 µM; with IL-6 (setting [7]), above 100 µM.
Consider `C=C(C(=O)O)C(C)C(=O)NC(C)(C)c1ccc(C(F)(F)F)cc1` (stereo not shown) [Example 51, 3-methyl-2-methylene-4-oxo-4-((2-(4-(trifluoromethyl)phenyl)propan-2-yl)amino)butanoic acid], for which the IC50 is 10.2 µM in the data set on IL-1β (Homo sapiens, THP-1, read-out: IL-1β (IC50)) and above 100 µM with IL-6 (Homo sapiens, THP-1, read-out: IL-6 (IC50)). Further, in data set [3], the half-life at 10 μM was above 7.67 h. Besides, the Clint in data set [1] (human, hepatocytes) was below 3 μL min^−1 10^−6 cells.
`C=C(CC(=O)OC)C(=O)OC` [dimethyl itaconate, Dimethyl itaconate, reference compound]: the values for the IC50 in the data set on IL-1β (setting [12]) and in the data set with IL-6 (setting [7]) were above 100 µM and 100 µM, respectively. The Emax in data set [5] (setting [14]) worked out at 137%. The EC50 in data set [5] (setting [15]) is 21.4 µM. The “NRF2 activation Emax, −GSH” value in data set [5] (setting [9]) came out at 137%.
